In the test the test system is spiral strips of the pulmonary artery of the guinea-pig. The test is described as follows: relaxing action on potassium-depolarised, CaCl2-contracted spiral strips of the pulmonary artery (modified method of Godfraind and Kaba and of Schuman et al.). The class given is cell-based. The following applies: for IC50: Cavia porcellus, guinea-pig pulmonary artery strips, 40 mmol/l potassium, contraction by 0.5 mmol/l CaCl2, cumulative addition, average of 4 to 6 vessel strips, read-out: IC50 (concentration of the test substance which inhibits the contraction by 50%); for Duration of action: time needed after addition of the test substance until the starting value is obtained again. As to the method:
The pharmacological action of the compounds of the formula I was determined by a modified method of Godfraind and Kaba (Arch. Int. Pharmacodyn. Ther. 196, (Suppl) 35 to 49, 1972) and of Schuman et al. (Naunyn-Schmiedeberg's Arch. Pharmacol. 289, 409 to 418, 1975). In this connection, spiral strips of the pulmonary artery of the guinea-pig are depolarised with 40 mmol/l of potassium after equilibration in calcium-free Tyrode solution. An addition of 0.5 mmol/l of CaCl2 then induces a contraction. The relaxing action of the test substance is determined by cumulative addition in 1/2 log 10 stepped concentrations. From the concentration-effect curve (abscissa: -log mol/l of test substance, ordinate: % inhibition of the maximum contraction, average value of 4 to 6 vessel strips), the concentration of the test substance is determined which inhibits the contraction by 50% (=IC50, mol/l). The duration of action of the test substance is given by the time which is needed after the addition of the test substance until the starting value is obtained again.

Data on 5 molecules can be found in US5166166A, “3-dicyclohexylaminosydnone imines, process for their preparation and their use” (Cassella Aktiengesellschaft, priority 1990, dated 1992).

On to `COc1ccc(C(=O)[N-]c2c[n+](N(C3CCCCC3)C3CCCCC3)no2)cc1` [N-p-Anisoyl-3-dicyclohexylaminosydnone imine], for which the IC50 came to 3 µM and the Duration of action turned out to be 300 min.
`Cl.N=c1c[n+](N(C2CCCCC2)C2CCCCC2)[n-]o1` [3-Dicyclohexylaminosydnone imine hydrochloride]: the IC50 is 0.4 µM and the Duration of action came to 270 min.
Consider `CCOC(=O)[N-]c1cn(N2CCOCC2)n[o+]1` [Molsidomine, NEthoxycarbonyl-3-morpholinosydnone imine, reference compound], for which the IC50 was 300 µM and the Duration of action is 120 min.
As to `CC(C)(C)C(=O)[N-]c1c[n+](N(C2CCCCC2)C2CCCCC2)no1` [N-Pivaloyl-3-dicyclohexylaminosydnone imine], the IC50 is 5 µM and the Duration of action came out at 310 min.
Turning to `Cl.N=c1c[n+](N2CCOCC2)[n-]o1` [SIN-1, 3Morpholinosydnone imine hydrochloride, reference compound], the IC50 is 1 µM and the Duration of action came out at 90 min.
